Several values for one entry are separate records, joined by “and”; a condition that tells them apart may be missing. Equal values may be shown once.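 All cell lines were grown in 96-well plates and treated with compound for 48 hours. Abbreviation: GI50, concentration required for 50% inhibition of growth. Definition used: TGI = concentration required for complete inhibition of growth.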
How the values were obtained:
Assay in all cases: DTP human tumour cell line panel, 48 h
[1] = system: MDA-MB-468 breast
[2] = system: BT-549 breast
[3] = system: UACC-62 melanoma
[4] = system: MCF7 breast
[5] = system: SN12C renal
[6] = system: NCI/ADR-RES ovarian
[7] = system: IGROV1 ovarian
[8] = system: RPMI-8226 leukemia
[9] = system: NCI-H226 lung
[10] = system: A498 renal
[11] = system: M14 melanoma
[12] = system: UACC-257 melanoma
[13] = system: SNB-75 CNS
[14] = system: T-47D breast
[15] = system: HOP-62 NSCLC
[16] = system: HCC-2998 colon
[17] = system: SF-268 CNS
[18] = system: HCT-116 colon
[19] = system: NCI-H522 lung
[20] = system: OVCAR-5 ovarian
[21] = system: K-562 leukemia
[22] = system: CCRF-CEM leukemia
[23] = system: A549 NSCLC
[24] = system: SF-295 CNS
[25] = system: MDA-MB-435
[26] = system: HCT-15 colon
[27] = system: NCI-H23 lung
[28] = system: DU-145 prostate
[29] = system: HOP-92 NSCLC
[30] = system: MALME-3M melanoma
[31] = system: SK-OV-3 ovarian
[32] = system: LOX IMVI melanoma
[33] = system: OVCAR-8 ovarian
[34] = system: SK-MEL-2 melanoma
[35] = system: CAKI-1 renal
[36] = system: OVCAR-3 ovarian
[37] = system: SK-MEL-5 melanoma
[38] = system: HS 578T breast
[39] = system: U251 CNS
[40] = system: MOLT-4 leukemia
[41] = system: HT29 colon
[42] = system: OVCAR-4 ovarian
[43] = system: ACHN renal
[44] = system: HL-60(TB) leukemia
[45] = system: NCI-H460 lung
[46] = system: SNB-19 CNS
[47] = system: PC-3 prostate
[48] = system: COLO 205 colon
[49] = system: RXF 393 renal
[50] = system: EKVX NSCLC
[51] = system: SW-620 colon
[52] = system: KM12 colon
[53] = system: SK-MEL-28 melanoma
[54] = system: 786-0 renal
[55] = system: SF-539 CNS
[56] = system: TK-10 renal

Cc1cccc2c1NC(=O)C2(c1ccc(O)cc1)c1ccc(O)cc1
GI50 [1]: < 0.0181 µM
TGI [1]: 4.24 µM

CNC(=O)c1c(NC(=O)c2ccc(C(C)C)cc2)sc2c1CCC(=O)C2
GI50 [1]: 0.45 µM
TGI [1]: 2.33 µM

COc1ccc2c(c1)c(-c1nc(-c3cn(C)c4ncccc34)cs1)cn2CCCCN1CCOCC1
GI50 [1]: 1.34 µM
TGI [1]: 3.08 µM

COc1cc(C(=O)Nc2cc(O)c(C/C=C(\C)CCC=C(C)C)c(O)c2)cc2c1O[C@]1(C)CC[C@@H](O)C(C)(C)[C@H]1C2
GI50 [1]: 0.816 µM and 0.212 µM
TGI [1]: 4.95 µM

COc1cc(/C=N/Nc2ncnc3c2cnn3Cc2ccccc2)ccc1O
GI50 [1]: 7.88 µM
TGI [1]: > 25 µM

O=C1CCCC(=O)C1C(=O)c1ccc(C(F)(F)F)cc1[N+](=O)[O-]
GI50 [1]: > 100 µM
TGI [1]: > 100 µM

CCCN(CCC)c1ccc(/C=N/NC(=O)c2cccnc2)cc1
GI50 [1]: 16.4 µM
TGI [1]: 84.2 µM

CCNC(=O)c1ccc2c(c1)nc(-c1ccc(Cl)cc1)n2-c1cc(C(C)(C)C)[nH]n1
GI50 [1]: 2.26 µM
TGI [1]: 8.3 µM

O=C(Nc1cccc(-n2cc(-c3ccncc3)c(-c3ccc(O)c(Cl)c3)n2)c1)c1ccc(N2CCOCC2)c(C(F)(F)F)c1
GI50 [1]: 35.3 µM
TGI [1]: > 50 µM

CO[C@@H]1CSSC1Cn1nc(-c2ccc(Oc3ccccc3)cc2)c2c(N)ncnc21 (some centres undefined)
GI50 [2]: > 100 µM
TGI [2]: > 100 µM
GI50 [3]: 14.5 µM
TGI [3]: > 100 µM
GI50 [4]: 6.87 µM
TGI [4]: > 100 µM
GI50 [5]: > 100 µM
TGI [5]: > 100 µM
GI50 [6]: > 100 µM
TGI [6]: > 100 µM
GI50 [7]: > 100 µM
TGI [7]: > 100 µM
GI50 [8]: 43.3 µM
TGI [8]: > 100 µM
GI50 [9]: 39.7 µM
TGI [9]: > 100 µM
GI50 [10]: 99 µM
TGI [10]: > 100 µM
GI50 [11]: 1.99 µM
TGI [11]: 4.35 µM
GI50 [12]: 16.2 µM
TGI [12]: > 100 µM
GI50 [13]: > 100 µM
TGI [13]: > 100 µM
GI50 [14]: 6.14 µM
TGI [14]: > 100 µM
GI50 [15]: 16.4 µM
TGI [15]: > 100 µM
GI50 [16]: 21 µM
TGI [16]: > 100 µM
GI50 [17]: 8.22 µM
TGI [17]: > 100 µM
GI50 [18]: 5.36 µM
TGI [18]: > 100 µM
GI50 [19]: 41.8 µM
TGI [19]: > 100 µM
GI50 [20]: 51.5 µM
TGI [20]: > 100 µM
GI50 [21]: 3.6 µM
TGI [21]: > 100 µM
GI50 [22]: 4.29 µM
TGI [22]: > 100 µM
GI50 [23]: 13.9 µM
TGI [23]: > 100 µM
GI50 [24]: 62 µM
TGI [24]: > 100 µM
GI50 [25]: 3.19 µM
TGI [25]: 10.2 µM
GI50 [26]: 33.3 µM
TGI [26]: > 100 µM
GI50 [27]: > 100 µM
TGI [27]: > 100 µM
GI50 [28]: > 100 µM
TGI [28]: > 100 µM
GI50 [29]: > 100 µM
TGI [29]: > 100 µM
GI50 [30]: 62.7 µM
TGI [30]: > 100 µM
GI50 [31]: 3.25 µM
TGI [31]: 24.6 µM
GI50 [32]: 43.9 µM
TGI [32]: > 100 µM
GI50 [33]: > 100 µM
TGI [33]: > 100 µM
GI50 [34]: 22.8 µM
TGI [34]: > 100 µM
GI50 [35]: > 100 µM
TGI [35]: > 100 µM
GI50 [36]: 63.5 µM
TGI [36]: > 100 µM
GI50 [37]: 14.8 µM
TGI [37]: > 100 µM
GI50 [38]: > 100 µM
TGI [38]: > 100 µM
GI50 [39]: > 100 µM
TGI [39]: > 100 µM
GI50 [40]: 2.24 µM
TGI [40]: 6.52 µM
GI50 [41]: 6.82 µM
TGI [41]: > 100 µM
GI50 [42]: > 100 µM
TGI [42]: > 100 µM
GI50 [43]: 12.3 µM
TGI [43]: > 100 µM
GI50 [44]: 6.13 µM
TGI [44]: > 100 µM
GI50 [45]: 3.43 µM
TGI [45]: 76.5 µM
GI50 [46]: > 100 µM
TGI [46]: > 100 µM
GI50 [47]: 58.7 µM
TGI [47]: > 100 µM
GI50 [48]: 53.2 µM
TGI [48]: > 100 µM
GI50 [49]: 50.3 µM
TGI [49]: > 100 µM
GI50 [50]: 7.29 µM
TGI [50]: > 100 µM
GI50 [51]: 57.9 µM
TGI [51]: > 100 µM
GI50 [52]: 8.73 µM
TGI [52]: > 100 µM
GI50 [1]: 5.18 µM
TGI [1]: 86.5 µM
GI50 [53]: 2.87 µM
TGI [53]: 21 µM
GI50 [54]: > 100 µM
TGI [54]: > 100 µM
GI50 [55]: > 100 µM
TGI [55]: > 100 µM
GI50 [56]: 37.9 µM
TGI [56]: > 100 µM

c1ccc(C2=NN[C@H](c3cn(-c4ccccc4)nc3-c3ccccc3)C2)cc1
GI50 [1]: 4.18 µM
TGI [1]: > 100 µM

O=C1C(Cl)=C(Nc2ccccn2)C(=O)c2ccccc21
GI50 [1]: 1.99 µM
TGI [1]: 4.39 µM

CC(=O)OC[C@@]12Oc3c(cccc3-c3ccc(O)c4c3O[C@]3(COC(C)=O)C(=C4O)C(=O)C[C@H](C)[C@@H]3OC(C)=O)C(O)=C1C(=O)C[C@H](C)[C@@H]2OC(C)=O
GI50 [1]: 15.1 µM
TGI [1]: 48.7 µM

CCc1cccc(CC)c1NC(=O)c1ccn2c1CCc1cnc(Nc3ccc(N4CCN(C)CC4)cc3OC)nc1-2
GI50 [1]: 2.1 µM
TGI [1]: 5.91 µM

CC(=O)Nc1ccc(S(=O)(=O)c2ccc(NC(C)=O)cc2)cc1
GI50 [1]: 64.8 µM
TGI [1]: > 100 µM

CCOC(=O)c1c(NC(=O)c2ccccc2C(F)(F)F)sc2c1CCC(=O)C2
GI50 [1]: 2.35 µM
TGI [1]: 7.52 µM

CN1CCN(CCCOc2ccc3nc(Nc4ccc(C(F)(F)F)c(Cl)c4)ccc3c2)CC1
GI50 [1]: 1.54 µM
TGI [1]: 3.16 µM

CS(=O)(=O)c1ccc(-c2[nH]c3ccc(F)cc3c2/C=N/NC(N)=S)cc1
GI50 [1]: 2.67 µM
TGI [1]: 13.4 µM

Nc1ncnc2c1c(C(=O)NO)cn2C1OC(CO)C(O)C1O (centres undefined)
GI50 [1]: 0.115 µM
TGI [1]: 0.908 µM

COc1cccc2cc(-c3nc(C4CCC(C(=O)O)CC4)n4ncnc(N)c34)[nH]c12 (centres undefined)
GI50 [1]: 0.185 µM and 0.257 µM
TGI [1]: 1.09 µM and 3 µM

CN1CCN(CCCN2c3ccccc3Sc3ccc(C(F)(F)F)cc32)CC1
GI50 [1]: 1.52 µM
TGI [1]: 3.19 µM

O=C(Nc1ccc(O)c(NS(=O)(=O)c2ccc(F)cc2)c1)c1ccc(-c2ccccc2)cc1
GI50 [1]: 2.48 µM
TGI [1]: 10.8 µM

Cc1nc2sc(C(=O)Nc3cccc(Cl)c3C)c(N)c2cc1C(=O)c1ccccc1
GI50 [1]: 0.126 µM
TGI [1]: 0.889 µM

N=C(N)c1ccc(-c2ccc(-c3ccc(Cl)c(Cl)c3)o2)nc1
GI50 [1]: 1.82 µM
TGI [1]: 3.56 µM

OCCN1CCN(c2nc(Nc3ccc(-c4nc5ccccc5[nH]4)cc3)c3cn[nH]c3n2)CC1
GI50 [1]: 1.69 µM
TGI [1]: 3.23 µM

O=c1cc(-c2ccccc2)nc2cc(-c3ccco3)[nH]n12
GI50 [1]: 2.89 µM
TGI [1]: 59.5 µM

O=C(Nc1ccc(Cl)cc1F)c1cc(Cl)ccc1O
GI50 [1]: 0.429 µM
TGI [1]: 3.96 µM

COc1cc(C2C(C(=O)OCc3ccccc3)=C(C)NC(C)=C2C(=O)OCc2ccccc2)cc(OC)c1OC
GI50 [1]: 2.43 µM
TGI [1]: > 100 µM

CC#CC(=O)N[C@H]1CCCN(c2c(F)cc(C(N)=O)c3[nH]c(C)c(C)c23)C1
GI50 [1]: 11.8 µM
TGI [1]: 27 µM

CCCCC/C=C\C/C=C/CCCCCCCCNC(=O)Nc1ccc([N+](=O)[O-])cc1
GI50 [1]: 7.63 µM
TGI [1]: 73 µM

CC(C)NCCCCCNc1cc(O)cc2cccnc12
GI50 [1]: 2.29 µM
TGI [1]: 6.2 µM

CC(=O)OC1CC(C)c2c(Cl)ncnc21 (centres undefined)
GI50 [1]: > 100 µM
TGI [1]: > 100 µM

COc1ccc(C(=O)c2cc(OC)c(OC)c(OC)c2)cc1/C=C/C(=O)c1ccc2c(c1)OCO2
GI50 [1]: 1.44 µM
TGI [1]: 4.06 µM

Cc1csc(-c2ccc3c(c2)COC3(CCCN(C)C)c2ccc(F)cc2)c1 (centres undefined)
GI50 [1]: 1.7 µM
TGI [1]: 3.38 µM

O=C1c2ccccc2CCC1(Br)Br
GI50 [1]: 1.2 µM
TGI [1]: 2.95 µM

N#C/C(=C\c1ccc([N+](=O)[O-])s1)c1nc2cc(Br)ccc2s1
GI50 [1]: 1.89 µM
TGI [1]: 5.42 µM

Cc1[nH]c2ccccc2c1C1=CC(=O)C=CC1=O
GI50 [1]: 3.1 µM
TGI [1]: 11.2 µM

— PubChem BioAssay (NCI)
